Species on record: Rattus norvegicus
Assay: DrugMatrix - Regimen: Daily Repeat
Assay type: toxicity, organism-based, Sprague-Dawley
Parameters: regimen Daily Repeat, gender Male, age 6-8 weeks
Settings: in vivo, po, route oral GAVAGE, […]; for ABSOLUTE BASOPHIL / ABSOLUTE EOSINOPHIL / ABSOLUTE LYMPHOCYTE / ABSOLUTE MONOCYTE / ABSOLUTE SEGMENTED NEUTROPHIL / BASOPHIL / EOSINOPHIL / ERYTHROCYTE COUNT / HEMATOCRIT / HEMOGLOBIN / LEUKOCYTE COUNT / LYMPHOCYTE / MEAN CORPUSCULAR HEMOGLOBIN / MEAN CORPUSCULAR HEMOGLOBIN CONCENTRATION / MEAN CORPUSCULAR VOLUME / MONOCYTE / NEUTROPHIL / NUCLEATED RED BLOOD CELLS / PLATELET COUNT: tissue Blood; for ALANINE AMINOTRANSFERASE / ALBUMIN / ALKALINE PHOSPHATASE / ASPARTATE AMINOTRANSFERASE / BLOOD UREA NITROGEN / CARBON DIOXIDE / CHLORIDE / CHOLESTEROL / CREATINE PHOSPHOKINASE / CREATININE / GLUCOSE / LACTATE DEHYDROGENASE / LIPASE / PHOSPHORUS / POTASSIUM / SODIUM / TOTAL BILIRUBIN / TOTAL PROTEIN / URIC ACID: tissue Plasma
[1] = 0 mg/kg, 72 h, dose level Control, time 3 day
[2] = 0 mg/kg, 120 h, dose level Control, time 5 day
[3] = 3 mg/kg, 72 h, dose level Low, time 3 day

## CS(=O)(=O)c1ccc(C2=C(c3ccccc3)C(=O)OC2)cc1 [ROFECOXIB]
[1]
  ABSOLUTE BASOPHIL: 0 CELLS/uL
  ABSOLUTE EOSINOPHIL: 0 CELLS/uL
  ABSOLUTE LYMPHOCYTE: 6275.67 CELLS/uL
  ABSOLUTE MONOCYTE: 40.67 CELLS/uL
  ABSOLUTE SEGMENTED NEUTROPHIL: 633.67 CELLS/uL
  BASOPHIL: 0%
  EOSINOPHIL: 0%
  ERYTHROCYTE COUNT: 5.2 x10E6/uL
  HEMATOCRIT: 32.78%
  HEMOGLOBIN: 12.98 G/DL
  LEUKOCYTE COUNT: 6.95 x10E3/uL
  LYMPHOCYTE: 90.17%
  MEAN CORPUSCULAR HEMOGLOBIN: 24.97 pg
  MEAN CORPUSCULAR HEMOGLOBIN CONCENTRATION: 39.62 G/DL
  MEAN CORPUSCULAR VOLUME: 63.03 fL
  MONOCYTE: 0.67%
  NEUTROPHIL: 9.17%
  NUCLEATED RED BLOOD CELLS: 0 /100WBC
  PLATELET COUNT: 1082.83 x10E3/uL
  ALANINE AMINOTRANSFERASE: 69.67 u/L
  ALBUMIN: 4.15 G/DL
  ALKALINE PHOSPHATASE: 430.5 u/L
  ASPARTATE AMINOTRANSFERASE: 90.83 u/L
  BLOOD UREA NITROGEN: 13 mg/dL
  CARBON DIOXIDE: 33 mmol/L
  CHLORIDE: 99.17 MEQ/L
  CHOLESTEROL: 70.5 mg/dL
  CREATINE PHOSPHOKINASE: 253.33 u/L
  CREATININE: 0.13 mg/dL
  GLUCOSE: 157.17 mg/dL
  LACTATE DEHYDROGENASE: 85 u/L
  LIPASE: 10 u/L
  PHOSPHORUS: 10.2 mg/dL
  POTASSIUM: 5.78 MEQ/L
  SODIUM: 144.12 MEQ/L
  TOTAL BILIRUBIN: 0.2 mg/dL
  TOTAL PROTEIN: 5.8 G/DL
  URIC ACID: 0.8 mg/dL
[2]
  ABSOLUTE BASOPHIL: 0 CELLS/uL
  ABSOLUTE EOSINOPHIL: 0 CELLS/uL
  ABSOLUTE LYMPHOCYTE: 10431 CELLS/uL
  ABSOLUTE MONOCYTE: 90.5 CELLS/uL
  ABSOLUTE SEGMENTED NEUTROPHIL: 1111.83 CELLS/uL
  BASOPHIL: 0%
  EOSINOPHIL: 0%
  ERYTHROCYTE COUNT: 5.51 x10E6/uL
  HEMATOCRIT: 34.67%
  HEMOGLOBIN: 13.5 G/DL
  LEUKOCYTE COUNT: 11.63 x10E3/uL
  LYMPHOCYTE: 89.67%
  MEAN CORPUSCULAR HEMOGLOBIN: 24.5 pg
  MEAN CORPUSCULAR HEMOGLOBIN CONCENTRATION: 38.95 G/DL
  MEAN CORPUSCULAR VOLUME: 62.87 fL
  MONOCYTE: 0.67%
  NEUTROPHIL: 9.67%
  NUCLEATED RED BLOOD CELLS: 0 /100WBC
  PLATELET COUNT: 1052.67 x10E3/uL
  ALANINE AMINOTRANSFERASE: 54.67 u/L
  ALBUMIN: 4.15 G/DL
  ALKALINE PHOSPHATASE: 359.83 u/L
  ASPARTATE AMINOTRANSFERASE: 83 u/L
  BLOOD UREA NITROGEN: 13.5 mg/dL
  CARBON DIOXIDE: 27.17 mmol/L
  CHLORIDE: 98.5 MEQ/L
  CHOLESTEROL: 66.83 mg/dL
  CREATINE PHOSPHOKINASE: 256.17 u/L
  CREATININE: 0.19 mg/dL
  GLUCOSE: 171.33 mg/dL
  LACTATE DEHYDROGENASE: 91.5 u/L
  LIPASE: 10.5 u/L
  PHOSPHORUS: 8.72 mg/dL
  POTASSIUM: 5.34 MEQ/L
  SODIUM: 142.53 MEQ/L
  TOTAL BILIRUBIN: 0.2 mg/dL
  TOTAL PROTEIN: 6.05 G/DL
  URIC ACID: 0.6 mg/dL
[3]
  ABSOLUTE BASOPHIL: 0 CELLS/uL
  ABSOLUTE EOSINOPHIL: 85.33 CELLS/uL
  ABSOLUTE LYMPHOCYTE: 8896 CELLS/uL
  ABSOLUTE MONOCYTE: 157.33 CELLS/uL
  ABSOLUTE SEGMENTED NEUTROPHIL: 594.67 CELLS/uL
  BASOPHIL: 0%
  EOSINOPHIL: 0.67%
  ERYTHROCYTE COUNT: 4.87 x10E6/uL
  HEMATOCRIT: 31.33%
  HEMOGLOBIN: 12.37 G/DL
  LEUKOCYTE COUNT: 9.73 x10E3/uL
  LYMPHOCYTE: 92%
  MEAN CORPUSCULAR HEMOGLOBIN: 25.37 pg
  MEAN CORPUSCULAR HEMOGLOBIN CONCENTRATION: 39.47 G/DL
  MEAN CORPUSCULAR VOLUME: 64.27 fL
  MONOCYTE: 1.33%
  NEUTROPHIL: 6%
  NUCLEATED RED BLOOD CELLS: 0 /100WBC
  PLATELET COUNT: 1073 x10E3/uL
  ALANINE AMINOTRANSFERASE: 72.67 u/L
  ALBUMIN: 3.97 G/DL
  ALKALINE PHOSPHATASE: 379.67 u/L
  ASPARTATE AMINOTRANSFERASE: 91.33 u/L
  BLOOD UREA NITROGEN: 11.33 mg/dL
  CARBON DIOXIDE: 30.33 mmol/L
  CHLORIDE: 103.33 MEQ/L
  CHOLESTEROL: 80.33 mg/dL
  CREATINE PHOSPHOKINASE: 195.67 u/L
  CREATININE: 0.12 mg/dL
  GLUCOSE: 156 mg/dL
  LACTATE DEHYDROGENASE: 80 u/L
  LIPASE: 9.67 u/L
  PHOSPHORUS: 11.1 mg/dL
  POTASSIUM: 6.21 MEQ/L
  SODIUM: 149.03 MEQ/L
  TOTAL BILIRUBIN: 0.1 mg/dL
  TOTAL PROTEIN: 5.43 G/DL
  URIC ACID: 0.7 mg/dL
